Laboratory results from ChEMBL document CHEMBL3871268, “Chalcogen containing heterocyclic scaffolds: New hybrids with antitumoral activity” (Eur J Med Chem, 2016).
Residues, ends and D or L forms follow the SMILES beside them. *: point of attachment. Cbz = O=C(OCc1ccccc1)*; CH2F = FC*

Legend:
[1] = Cell cycle analysis in human MCF7 cells assessed as accumulation at S phase at 6 uM measured after 24 hrs by propidium iodide staining-based flow cytometry (reference value: 15.3%); type: functional
[2] = Cell cycle analysis in human MCF7 cells assessed as accumulation at SubG1 phase at 6 uM measured after 24 hrs by propidium iodide staining-based flow cytometry (reference value: 2.6%); type: functional
[3] = Cell cycle analysis in human MCF7 cells assessed as accumulation at G0/G1 phase at 6 uM measured after 24 hrs by propidium iodide staining-based flow cytometry (reference value: 73.6%); type: functional
[4] = Cell cycle analysis in human MCF7 cells assessed as accumulation at G2/M phase at 6 uM measured after 24 hrs by propidium iodide staining-based flow cytometry (reference value: 8.9%); type: functional
[5] = Cytotoxicity against human MCF7 cells assessed as reduction in cell viability measured after 72 hrs by MTT assay; type: functional; conditions: MCF7, 72 h
MCF7 = assay: Selectivity index, ratio of GI50 for human 184B5 cells to GI50 for human MCF7 cells; type: functional
[6] = Cytotoxicity against human PC3 cells assessed as reduction in cell viability measured after 72 hrs by MTT assay; type: functional; conditions: PC-3, 72 h
[7] = Cytotoxicity against human 184B5 cells assessed as reduction in cell viability measured after 72 hrs by MTT assay; type: toxicity, cell-based; conditions: for GI50 at 72 h: 184B5 cells; for LC50 / TGI: 184b5, 72 h
[8] = Cell cycle arrest in human MCF7 cells assessed as M1 quadrant cells at 50 uM pretreated with pan-caspase inhibitor Z-VAD-FMK for 1 hr followed by compound addition measured after 48 hrs by propidium iodide staining-based flow cytometry assay (reference value: 98.1%); type: functional; parameters: scale not given: the % may be the effect or the level left
[9] = Cell cycle arrest in human MCF7 cells assessed as sub-diploid cells at 50 uM pretreated with pan-caspase inhibitor Z-VAD-FMK for 1 hr followed by compound addition measured after 48 hrs by propidium iodide staining-based flow cytometry assay (reference value: 1.9%); type: functional; parameters: scale not given: the % may be the effect or the level left
[10] = Cell cycle arrest in human MCF7 cells assessed as sub-diploid cells at 100 nM measured after 48 hrs by propidium iodide staining-based flow cytometry (reference value: 1.9%); type: functional
[11] = Cell cycle arrest in human MCF7 cells assessed as M1 quadrant cells at 100 nM measured after 48 hrs by propidium iodide staining-based flow cytometry (reference value: 98.1%); type: functional
[12] = Cell cycle analysis in human MCF7 cells assessed as accumulation at S phase at 1 uM measured after 24 hrs by propidium iodide staining-based flow cytometry (reference value: 15.3%); type: functional
[13] = Cell cycle analysis in human MCF7 cells assessed as accumulation at S phase at 18 uM measured after 24 hrs by propidium iodide staining-based flow cytometry (reference value: 15.3%); type: functional
[14] = Cell cycle analysis in human MCF7 cells assessed as accumulation at G2/M phase at 5 uM measured after 24 hrs by propidium iodide staining-based flow cytometry (reference value: 8.9%); type: functional
[15] = Cell cycle analysis in human MCF7 cells assessed as accumulation at G2/M phase at 25 uM measured after 24 hrs by propidium iodide staining-based flow cytometry (reference value: 8.9%); type: functional
[16] = Cell cycle arrest in human MCF7 cells assessed as M1 quadrant cells at 18 uM pretreated with autophagy inhibitor wortmannin for 1 hr followed by compound addition measured after 48 hrs by propidium iodide staining-based flow cytometry assay (reference value: 98.1%); type: functional; parameters: scale not given: the % may be the effect or the level left
[17] = Cell cycle analysis in human MCF7 cells assessed as accumulation at S phase at 25 uM measured after 24 hrs by propidium iodide staining-based flow cytometry (reference value: 15.3%); type: functional
[18] = Cell cycle analysis in human MCF7 cells assessed as accumulation at SubG1 phase at 1 uM measured after 24 hrs by propidium iodide staining-based flow cytometry (reference value: 2.6%); type: functional
[19] = Cell cycle arrest in human MCF7 cells assessed as M1 quadrant cells at 18 uM measured after 48 hrs by propidium iodide staining-based flow cytometry (reference value: 98.1%); type: functional
[20] = Cell cycle analysis in human MCF7 cells assessed as accumulation at SubG1 phase at 5 uM measured after 24 hrs by propidium iodide staining-based flow cytometry (reference value: 2.6%); type: functional
[21] = Cell cycle analysis in human MCF7 cells assessed as accumulation at G2/M phase at 10 uM measured after 24 hrs by propidium iodide staining-based flow cytometry (reference value: 8.9%); type: functional
[22] = Cell cycle analysis in human MCF7 cells assessed as accumulation at SubG1 phase at 25 uM measured after 24 hrs by propidium iodide staining-based flow cytometry (reference value: 2.6%); type: functional
[23] = Cell cycle analysis in human MCF7 cells assessed as accumulation at S phase at 5 uM measured after 24 hrs by propidium iodide staining-based flow cytometry (reference value: 15.3%); type: functional
[24] = Cell cycle analysis in human MCF7 cells assessed as accumulation at G0/G1 phase at 5 uM measured after 24 hrs by propidium iodide staining-based flow cytometry (reference value: 73.6%); type: functional
[25] = Cell cycle analysis in human MCF7 cells assessed as accumulation at SubG1 phase at 10 uM measured after 24 hrs by propidium iodide staining-based flow cytometry (reference value: 2.6%); type: functional
[26] = Cell cycle arrest in human MCF7 cells assessed as sub-diploid cells at 18 uM measured after 48 hrs by propidium iodide staining-based flow cytometry (reference value: 1.9%); type: functional
[27] = Cell cycle arrest in human MCF7 cells assessed as sub-diploid cells at 18 uM pretreated with autophagy inhibitor wortmannin for 1 hr followed by compound addition measured after 48 hrs by propidium iodide staining-based flow cytometry assay (reference value: 1.9%); type: functional; parameters: scale not given: the % may be the effect or the level left
[28] = Cell cycle arrest in human MCF7 cells assessed as increase in subdiploid cells at 18 uM after 48 hrs by TUNEL based flow cytometry assay; type: functional
[29] = Cell cycle arrest in human MCF7 cells assessed as M1 quadrant cells at 18 uM pretreated with pan-caspase inhibitor Z-VAD-FMK for 1 hr followed by compound addition measured after 48 hrs by propidium iodide staining-based flow cytometry assay (reference value: 98.1%); type: functional; parameters: scale not given: the % may be the effect or the level left
[30] = Cell cycle arrest in human MCF7 cells assessed as sub-diploid cells at 18 uM pretreated with pan-caspase inhibitor Z-VAD-FMK for 1 hr followed by compound addition measured after 48 hrs by propidium iodide staining-based flow cytometry assay (reference value: 1.9%); type: functional; parameters: scale not given: the % may be the effect or the level left
[31] = Cell cycle analysis in human MCF7 cells assessed as accumulation at G0/G1 phase at 18 uM measured after 24 hrs by propidium iodide staining-based flow cytometry (reference value: 73.6%); type: functional
[32] = Cell cycle analysis in human MCF7 cells assessed as accumulation at G0/G1 phase at 1 uM measured after 24 hrs by propidium iodide staining-based flow cytometry (reference value: 73.6%); type: functional
[33] = Cell cycle analysis in human MCF7 cells assessed as accumulation at S phase at 10 uM measured after 24 hrs by propidium iodide staining-based flow cytometry (reference value: 15.3%); type: functional
[34] = Cell cycle analysis in human MCF7 cells assessed as accumulation at G2/M phase at 18 uM measured after 24 hrs by propidium iodide staining-based flow cytometry (reference value: 8.9%); type: functional
[35] = Cell cycle analysis in human MCF7 cells assessed as accumulation at SubG1 phase at 18 uM measured after 24 hrs by propidium iodide staining-based flow cytometry (reference value: 2.6%); type: functional
[36] = Cell cycle analysis in human MCF7 cells assessed as accumulation at G2/M phase at 1 uM measured after 24 hrs by propidium iodide staining-based flow cytometry (reference value: 8.9%); type: functional
[37] = Cell cycle analysis in human MCF7 cells assessed as accumulation at G0/G1 phase at 10 uM measured after 24 hrs by propidium iodide staining-based flow cytometry (reference value: 73.6%); type: functional
[38] = Cell cycle analysis in human MCF7 cells assessed as accumulation at G0/G1 phase at 25 uM measured after 24 hrs by propidium iodide staining-based flow cytometry (reference value: 73.6%); type: functional

CC[C@@]1(O)C(=O)OCc2c1cc1n(c2=O)Cc2cc3ccccc3nc2-1
Activity [1]: 16.3% | Activity [2]: 4.4% | Activity [3]: 54.6% | Activity [4]: 25.8%

N#CSCc1cc2c(cc1Br)OCO2
GI50 [5]: 6.7 µM | LC50 [5]: > 100 µM | TGI [5]: > 100 µM | RatioGI50 (MCF7): >14.9 | GI50 [6]: 23.8 µM | LC50 (concentration lethal to 50% of cells) [6]: 74.2 µM | TGI [6]: 41.8 µM | GI50 at 72 h [7]: > 100 µM | LC50 [7]: > 100 µM | TGI [7]: > 100 µM

CC(C)[C@H](NC(=O)OCc1ccccc1)C(=O)N[C@@H](C)C(=O)N[C@@H](CC(=O)O)C(=O)CF (Cbz-Val-Ala-Asp-CH2F)
Activity [8]: 96.1% | Activity [9]: 3.9%

N#CSCc1c2ccccc2nc2ccccc12
GI50 [5]: 0.9 µM | LC50 [5]: 34.4 µM | TGI [5]: 17.5 µM | RatioGI50 (MCF7): 16 | GI50 [6]: 1.5 µM | LC50 (concentration lethal to 50% of cells) [6]: 28.3 µM | TGI [6]: 2.4 µM | GI50 at 72 h [7]: 14.4 µM | LC50 [7]: 38.5 µM | TGI [7]: 26.4 µM

C[Se]c1nc2ccccc2s1
GI50 [5]: 7.2 µM | LC50 [5]: > 100 µM | TGI [5]: > 100 µM | RatioGI50 (MCF7): >13.9 | GI50 [6]: > 100 µM | LC50 (concentration lethal to 50% of cells) [6]: > 100 µM | TGI [6]: > 100 µM | GI50 at 72 h [7]: > 100 µM | LC50 [7]: > 100 µM | TGI [7]: > 100 µM

[SeH]c1ccnc([SeH])n1
GI50 [5]: 6.7 µM | LC50 [5]: 75.4 µM | TGI [5]: 40 µM | RatioGI50 (MCF7): 1.6 | GI50 [6]: 9.8 µM | LC50 (concentration lethal to 50% of cells) [6]: 51.3 µM | TGI [6]: 28.3 µM | GI50 at 72 h [7]: 10.7 µM | LC50 [7]: 63.7 µM | TGI [7]: 35.3 µM

C[Se](=O)O
GI50 [5]: 1.3 µM | LC50 [5]: > 100 µM | TGI [5]: 3.4 µM | RatioGI50 (MCF7): 1.4 | GI50 [6]: 2.5 µM | LC50 (concentration lethal to 50% of cells) [6]: 37.1 µM | TGI [6]: 8.4 µM | GI50 at 72 h [7]: 1.8 µM | LC50 [7]: > 100 µM | TGI [7]: 3.8 µM

N#CSCc1ccc(-n2cccc2)cc1
GI50 [5]: 8.2 µM | LC50 [5]: > 100 µM | TGI [5]: 36.9 µM | RatioGI50 (MCF7): 1.6 | GI50 [6]: 14.1 µM | LC50 (concentration lethal to 50% of cells) [6]: 88.1 µM | TGI [6]: 60.3 µM | GI50 at 72 h [7]: 12.9 µM | LC50 [7]: > 100 µM | TGI [7]: 23.5 µM

COC[C@H]1OC(=O)c2coc3c2[C@@]1(C)C1=C(C3=O)[C@@H]2CCC(=O)[C@@]2(C)C[C@H]1OC(C)=O
Activity [10]: 6.2% | Activity [11]: 93.8%

O=C1c2ccccc2C(=O)N1C[SeH]
GI50 [5]: 6 µM | LC50 [5]: 12.5 µM | TGI [5]: 8.2 µM | RatioGI50 (MCF7): 2.1 | GI50 [6]: 6.4 µM | LC50 (concentration lethal to 50% of cells) [6]: 16.9 µM | TGI [6]: 9.4 µM | GI50 at 72 h [7]: 12.7 µM | LC50 [7]: 21.9 µM | TGI [7]: 17.4 µM

Cc1noc(C)c1CSC#N
GI50 [5]: 4.8 µM | LC50 [5]: 84.9 µM | TGI [5]: 44.6 µM | Activity [12]: 22.2% | Activity [13]: 9.9% | Activity [14]: 13.2% | Activity [15]: 25.8% | Activity [16]: 49.6% | Activity [17]: 16.3% | Activity [18]: 2% | Activity [19]: 46% | Activity [20]: 3.3% | Activity [21]: 51.8% | Activity [22]: 4.4% | RatioGI50 (MCF7): 9.6 | Activity [23]: 14.9% | Activity [24]: 68.1% | Activity [25]: 3.4% | Activity [26]: 53.7% | Activity [27]: 50.4% | Activity [28]: > 60% | Activity [29]: 80.9% | Activity [30]: 19.1% | GI50 [6]: 8 µM | LC50 (concentration lethal to 50% of cells) [6]: 21.9 µM | TGI [6]: 13.8 µM | Activity [31]: 18.4% | Activity [32]: 67.6% | Activity [33]: 11.6% | GI50 at 72 h [7]: 46.2 µM | LC50 [7]: 99.5 µM | TGI [7]: 74.2 µM | Activity [34]: 66.1% | Activity [35]: 5.7% | Activity [36]: 8.9% | Activity [37]: 33.8% | Activity [38]: 54.6%
